What was measured:
[1] = Apparent pKa of LNP formulations by TNS fluorescence assay; settings: LNP cationic lipid/DSPC/cholesterol/DMG-PEG 50/10/38.5/1.5 mol %, pH 3 to 9
Method: TNS was prepared as a 300 uM stock solution in distilled water. LNP formulations were diluted to 0.1 mg/ml total lipid in 3 mL of buffered solutions containing 50 mM sodium citrate, 50 mM sodium phosphate, 50 mM sodium borate, and 30 mM sodium chloride where the pH ranged from 3 to 9. An aliquot of the TNS solution was added to give a final concentration of 0.1 mg/ml and following vortex mixing fluorescence intensity was measured at room temperature in a Molecular Devices Spectramax iD3 spectrometer using excitation and mission wavelengths of 325 nm and 435 nm. A sigmoidal best fit analysis was applied to the fluorescence data and the pKa value was measured as the pH giving rise to half—maximal fluorescent intensity.

[2] = Encapsulation efficiency of lipid nanoparticles (Quant-it Ribogreen RNA assay); assay type: physicochemical
Method: (§1) Briefly, a cationic lipid provided herein, DSPC, cholesterol, and PEG-lipid were solubilized in ethanol at a molar ratio of 50:10:38.5:1.5, and mRNA were diluted in 10 to 50 mM citrate buffer, pH=4. The LNPs were prepared at a total lipid to mRNA weight ratio of approximately 10:1 to 30:1 by mixing the ethanolic lipid solution with the aqueous mRNA solution at a volume ratio of 1:3 using a microfluidic apparatus, total flow rate ranging from 9-30 mL/min. Ethanol were thereby removed and replaced by DPBS using dialysis. Finally, the lipid nanoparticles were filtered through a 0.2 μm sterile filter.
(§2) Lipid nanoparticle size were determined by dynamic light scattering using a Malvern Zetasizer Nano ZS (Malvern UK) using a 173° backscatter detection mode. The encapsulation efficiency of lipid nanoparticles were determined using a Quant-it Ribogreen RNA quantification assay kit (Thermo Fisher Scientific, UK) according to the manufacturer's instructions.

[3] = Lipid nanoparticle size and polydispersity by dynamic light scattering; assay type: physicochemical; settings: LNP of cationic lipid/DSPC/cholesterol/PEG-lipid 50:10:38.5:1.5 with mRNA
Method: as §1, §2

[4] = LNP of cationic lipid/DSPC/cholesterol/PEG-lipid 50:10:38.5:1.5 with mRNA

Apparant Pka [1]	Encapsulation Efficiency [2, 4] [%]	polydispersity [3]	size (nm) [3] [nm]	Encapsulation Efficiency ([2]; cell printed without % sign)	Structure (SMILES)
3.88	16.8	0.197	71.91	–	CCCCCCCCC(CCCCCC)COP(=O)(NCCN1CCOCC1)OCC(CCCCCC)CCCCCCCC (centres unmarked) [Compound 30]
6.85	99.0	0.114	54.72	–	CCCCCCCCC(CCCCCC)COP(=O)(NCCN(C)CCO)OCC(CCCCCC)CCCCCCCC (centres unmarked) [Compound 46]
5.27	–	0.071	73.53	0.864	CCCCCCCCC(CCCCCC)COP(=O)(NCCN(CCO)C1CCCCC1)OCC(CCCCCC)CCCCCCCC (centres unmarked) [Compound 47]
6.47	95.1	0.191	58.02	–	CCCCCCCCC(CCCCCC)COP(=O)(NCCN(CC)CC)OCC(CCCCCC)CCCCCCCC (centres unmarked) [Compound 49]
6.66	75.52	0.167	88.45	–	CCCCCCCCC(CCCCCC)COP(=O)(NCCN(CCCC)CCCC)OCC(CCCCCC)CCCCCCCC (centres unmarked) [Compound 51]
5.679	95.1	0.329	90.86	–	CCCCCCCCC(CCCCCC)COP(=O)(NCCN(CCC)CCO)OCC(CCCCCC)CCCCCCCC (centres unmarked) [Compound 53]
5.644	88.8	0.037	138.5	–	CCCCCCCCC(CCCCCC)COP(=O)(NCCN(CCO)CCCC)OCC(CCCCCC)CCCCCCCC (centres unmarked) [Compound 54]
5.615	90.9	0.132	62.03	–	CCCCCCCCC(CCCCCC)COP(=O)(NCCN(CCO)CCCCC)OCC(CCCCCC)CCCCCCCC (centres unmarked) [Compound 55]
5.253	92.5	0.264	139.3	–	CCCCCCCCC(CCCCCC)COP(=O)(NCCN(CCO)CCCCCC)OCC(CCCCCC)CCCCCCCC (centres unmarked) [Compound 56]
5.325	91.0	0.196	78.22	–	CCCCCCCCC(CCCCCC)COP(=O)(NCCN(CCO)C1CCC1)OCC(CCCCCC)CCCCCCCC (centres unmarked) [Compound 57]
5.681	88.8	0.057	97.61	–	CCCCCCCCC(CCCCCC)COP(=O)(NCCN(CCO)C1CCCC1)OCC(CCCCCC)CCCCCCCC (centres unmarked) [Compound 58]
5.063	89.9	0.338	56.35	–	CCCCCCCCC(CCCCCC)COP(=O)(NCCN1CC2CC2C1)OCC(CCCCCC)CCCCCCCC (centres unmarked) [Compound 62]
6.892	97.0	0.148	53.85	–	CCCCCCCCC(CCCCCC)COP(=O)(NCCN1CCC(O)C1)OCC(CCCCCC)CCCCCCCC (centres unmarked) [Compound 63]
6.133	94.1	0.085	95.97	–	CCCCCCC(CCCCCC)COP(=O)(NCCN(CC)CC)OCC(CCCCCC)CCCCCC [Compound 65]
6.149	94.4	0.141	54.17	–	CCCCCCCCCCC(CCCCCC)COP(=O)(NCCN(CC)CC)OCC(CCCCCC)CCCCCCCCCC (centres unmarked) [Compound 66]
5.86	95.6	0.154	73.94	–	CCCCCCCCC(CCCCC)COP(=O)(NCCN(CC)CC)OCC(CCCCC)CCCCCCCC (centres unmarked) [Compound 72]

More lines, now with the values behind:

Structure (SMILES)	Apparant Pka [1]	Encapsulation Efficiency [2, 4] [%]	polydispersity [3]	size (nm) [3] [nm]	Encapsulation Efficiency ([2]; cell printed without % sign)
CCCCCCCCC(CCCCCC)COP(=O)(NCCN1CCCCCC1)OCC(CCCCCC)CCCCCCCC (centres unmarked) [Compound 28]	4.92	48.1	0.204	77.49	–
CCCCCCCCC(CCCCCC)COP(=O)(NCCCN1CCCCCC1)OCC(CCCCCC)CCCCCCCC (centres unmarked) [Compound 29]	5.51	58.9	0.09	84.8	–
CCCCCCCCC(CCCCCC)COP(=O)(NCCCN1CCOCC1)OCC(CCCCCC)CCCCCCCC (centres unmarked) [Compound 31]	5.21	91.8	0.159	62.39	–
CCCCCCCCCOP(=O)(NCCCN(C)C)OCCCCCCCC(=O)OC(CCCCCCCC)CCCCCCCC (centres unmarked) [Compound 32]	8.96	101.1	0.077	80.54	–
CCCCCCCCCOP(=O)(NCCN1CCCCC1)OCCCCCCCC(=O)OC(CCCCCCCC)CCCCCCCC (centres unmarked) [Compound 33]	7.74	98.2	0.091	128.5	–
CCCCCCCCCCCCCOP(=O)(NCCN1CCCCC1)OCCCCCCCC(=O)OC(CCCCCCCC)CCCCCCCC (centres unmarked) [Compound 34]	7.45	98.4	0.258	58.48	–
CCCCCCCCCCCCCOP(=O)(NCCCN1CCCCC1)OCCCCCCCC(=O)OC(CCCCCCCC)CCCCCCCC (centres unmarked) [Compound 35]	9.42	99.9	0.245	62.7	–
CCCCCCCCC(CCCCCCCC)OC(=O)CCCCCCCOP(=O)(NCCCN(C)C)OCCCCCCCC(=O)OC(CCCCCCCC)CCCCCCCC [Compound 36]	6.20	95.3	0.091	63.97	–
CCCCCCCCC(CCCCCCCC)OC(=O)CCCCCCCOP(=O)(NCCCN(C)C)NCCCN(C)C [Compound 37]	4.55	48.8	0.166	104.3	–
CCCCCCCCC(CCCCCCCC)OC(=O)CCCCCCCOP(=O)(NCCN(C)C)OCCCCCCCC(=O)OC(CCCCCCCC)CCCCCCCC [Compound 38]	5.84	45.9	0.094	108.5	–
CCCCCCCCCCCCCOP(=O)(NCCCN(C)C)OCCCCCCCC(=O)OC(CCCCCCCC)CCCCCCCC (centres unmarked) [Compound 39]	6.52	100.0	0.408	69.38	–
CCCCCCCCCOC(=O)CCCCCCCOP(=O)(NCCCN(C)C)OCCCCCCCC(=O)OC(CCCCCCCC)CCCCCCCC (centres unmarked) [Compound 40]	7.77	99.6	0.122	80.83	–
CCCCCCCCCCCCCOP(=O)(NCCN1CCC1)OCCCCCCCC(=O)OC(CCCCCCCC)CCCCCCCC (centres unmarked) [Compound 41]	7.70	101.1	0.306	50.64	–
CCCCCCCCC(CCCCCCCC)OC(=O)CCCCCCCOP(=O)(NCCCN(C)C)OCCCCCCC (centres unmarked) [Compound 43]	8.08	98.3	0.196	76.16	–
CCCCCCCCC(CCCCCCCC)OC(=O)CCCCCCCOP(=O)(NCCCCN(C)C)OCCCCCCC (centres unmarked) [Compound 44]	5.17	94.0	0.187	51.72	–
CCCCCCCCC(CCCCCC)C(C)OP(=O)(NCCN(CC)CC)OC(C)C(CCCCCC)CCCCCCCC (centres unmarked) [Compound 59]	4.385	58.6	0.118	90.85	–
CCCCCCCCC(CCCCCC)COP(=O)(NCCN1CCC(F)(F)C1)OCC(CCCCCC)CCCCCCCC (centres unmarked) [Compound 60]	3.726	55.0	0.179	85.33	–
CCCCCCCCC(CC)COP(=O)(NCCN(CC)CC)OCC(CC)CCCCCCCC (centres unmarked) [Compound 67]	7.195	93.3	0.116	86.9	–
CCCCCCCCC(C)COP(=O)(NCCN1CCCC1)OCC(C)CCCCCCCC (centres unmarked) [Compound 68]	7.401	95.0	0.253	86.75	–
CCCCCCCCC(C)COP(=O)(NCCN(CC)CC)OCC(C)CCCCCCCC (centres unmarked) [Compound 69]	7.408	87.1	0.355	68.3	–
CCCCCCCCC(CCC)COP(=O)(NCCN(CC)CC)OCC(CCC)CCCCCCCC (centres unmarked) [Compound 70]	6.153	93.8	0.298	53.76	–
CCCCCCCCC(CCC)COP(=O)(NCCN1CCCC1)OCC(CCC)CCCCCCCC (centres unmarked) [Compound 71]	7.104	94.4	0.108	69.18	–

— patent US20220331414A1, “LIPID COMPOUNDS AND LIPID NANOPARTICLE COMPOSITIONS” (Suzhou Abogen Biosciences Co., Ltd., priority 2020, published 2022)
